In patent publication US20240358684A1, “METHOD FOR ENHANCING INNATE IMMUNE RESPONSE” (Kyoto University, priority 2021, published 2024):
“Also recorded” adds a separate entry of the source.

What was measured:
[1] = tested on: OAS1 rs10774671 A-allele splicing; assay: RT-PCR for OAS1 alternative splicing profile in Calu-3 (A/A allele) cells; assay type: cell-based, human; settings: for yield of the p44a splice form (RT-PCR) / yield of the p44a splice form compared with other compound treatment: Calu-3, 10 μM, 18 hours (Example 2)
CLK1 = biological target: T1, CLK1 (Homo sapiens, UniProt P49759); assay: Inhibition confirmation test for CLK (off-chip mobility shift assay); assay type: biochemical; settings: at 1 μM; read-out: CLK1 inhibitory activity
T1 construct: Enzyme activity was measured with off-chip mobility shift assay using purified CLK protein
T1 sequence (P49759 whole entry): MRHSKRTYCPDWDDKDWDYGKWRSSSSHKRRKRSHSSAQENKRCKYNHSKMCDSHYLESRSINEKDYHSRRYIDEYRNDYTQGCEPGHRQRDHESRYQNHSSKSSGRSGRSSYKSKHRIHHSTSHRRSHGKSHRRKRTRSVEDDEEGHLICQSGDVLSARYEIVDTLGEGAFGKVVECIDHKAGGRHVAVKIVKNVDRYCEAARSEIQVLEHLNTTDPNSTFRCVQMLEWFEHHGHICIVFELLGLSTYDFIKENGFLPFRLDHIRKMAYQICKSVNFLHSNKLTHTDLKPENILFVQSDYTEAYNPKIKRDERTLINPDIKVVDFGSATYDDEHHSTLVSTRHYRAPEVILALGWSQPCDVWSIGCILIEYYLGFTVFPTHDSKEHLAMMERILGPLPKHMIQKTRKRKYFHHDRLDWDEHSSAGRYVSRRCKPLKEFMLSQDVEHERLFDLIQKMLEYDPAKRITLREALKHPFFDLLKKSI
Method: Enzyme activity was measured with off-chip mobility shift assay using purified CLK protein. […] The enzyme reaction was performed at room temperature for 1 hour, and the reaction was terminated by adding QuickScout Screening Assist MSA (Carna Biosciences, Inc.). A substrate peptide and a phosphorylated peptide in the enzyme reaction solution were separated and quantified using the LabChip system (Perkin-Elmer, Waltham, MA, USA), and inhibition of CLK was evaluated by calculating a product ratio using the following formula, the substrate peptide peak height (S), and the phosphorylated peptide peak height (P).
(§1) (P/(P+S)) • P: product-derived peak • S: substrate-derived peak

CLK3 = biological target: T2, CLK3 (Homo sapiens, UniProt P49761); assay: as above; assay type: biochemical; settings: at 1 μM; read-out: CLK3 inhibitory activity
T2 construct: Enzyme activity was measured with off-chip mobility shift assay using purified CLK protein
T2 sequence (P49761 whole entry): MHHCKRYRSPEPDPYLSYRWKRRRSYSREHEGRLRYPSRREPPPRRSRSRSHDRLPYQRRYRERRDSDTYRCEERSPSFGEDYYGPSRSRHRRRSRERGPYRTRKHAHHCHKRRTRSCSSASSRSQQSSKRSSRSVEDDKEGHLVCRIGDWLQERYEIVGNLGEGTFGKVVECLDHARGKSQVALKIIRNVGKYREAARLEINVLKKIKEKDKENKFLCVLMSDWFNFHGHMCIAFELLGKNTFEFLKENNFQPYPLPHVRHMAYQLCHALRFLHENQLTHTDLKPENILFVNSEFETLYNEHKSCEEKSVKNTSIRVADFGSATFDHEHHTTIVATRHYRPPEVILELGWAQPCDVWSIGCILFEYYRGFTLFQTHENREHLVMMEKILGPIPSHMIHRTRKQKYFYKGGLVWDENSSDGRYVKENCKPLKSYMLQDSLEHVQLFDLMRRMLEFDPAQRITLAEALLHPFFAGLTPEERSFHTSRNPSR
Method: (§2) Enzyme activity was measured with off-chip mobility shift assay using purified CLK protein. DYRKtide-F peptide (1 μM) was used as a substrate, and a composition of a reaction solution used was as follows (20 mM HEPES (pH7.5), 0.01% Triton X-100, 1 mM DT7, 1% DMSO, and ATP (10 μM for CLK1, 150 μM for CLK2, and 75 μM for CLK3)). The enzyme reaction was performed at room temperature for 1 hour, and the reaction was terminated by adding QuickScout Screening Assist MSA (Carna Biosciences, Inc.). A substrate peptide and a phosphorylated peptide in the enzyme reaction solution were separated and quantified using the LabChip system (Perkin-Elmer, Waltham, MA, USA), and inhibition of CLK was evaluated by calculating a product ratio using the following formula, the substrate peptide peak height (S), and the phosphorylated peptide peak height (P).
as §1

CLK2 = biological target: T3, CLK2 (Homo sapiens, UniProt P49760); assay: as above; assay type: biochemical; settings: at 1 μM; read-out: CLK2 inhibitory activity
T3 construct: Enzyme activity was measured with off-chip mobility shift assay using purified CLK protein
T3 sequence (P49760 whole entry): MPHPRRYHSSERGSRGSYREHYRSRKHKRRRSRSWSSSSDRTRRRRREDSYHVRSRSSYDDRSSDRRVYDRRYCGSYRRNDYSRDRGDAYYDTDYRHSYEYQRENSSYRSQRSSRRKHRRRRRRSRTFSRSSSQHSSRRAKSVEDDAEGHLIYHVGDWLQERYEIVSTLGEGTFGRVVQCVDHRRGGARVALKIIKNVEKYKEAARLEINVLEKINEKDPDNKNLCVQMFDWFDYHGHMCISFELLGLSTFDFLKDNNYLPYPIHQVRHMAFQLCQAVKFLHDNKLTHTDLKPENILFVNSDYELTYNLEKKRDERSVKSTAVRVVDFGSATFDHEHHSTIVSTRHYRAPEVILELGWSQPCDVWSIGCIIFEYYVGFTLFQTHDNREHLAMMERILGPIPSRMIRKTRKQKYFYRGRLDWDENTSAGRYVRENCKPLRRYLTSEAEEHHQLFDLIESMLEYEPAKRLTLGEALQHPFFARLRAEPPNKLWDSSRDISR
Method: as §2, §1

inhibition at 1 µM (CLK1) [%]	inhibition at 1 µM (CLK3) [%]	inhibition at 1 µM (CLK2) [%]	Compound	yield of p44a splice form (RT-PCR) ([1]; Calu-3, 10 μM or 30 μM, 18 hours (Example 3))	yield of the p44a splice form (RT-PCR) [1]	yield of the p44a splice form compared with other compound treatment [1]
			CCN1/C(=C/C(C)=O)Sc2ccc(OC)cc21 [compound 4, 1-(3-ethyl-5-methoxy-1,3-benzothiazol-2-ylidene)propan-2-one, reference compound]	increased the yield of p44a splice form		
98.4	21.6	90.5	c1cncc(-c2ccc3[nH]ncc3c2)c1 [compound 2, 5-pyridin-3-yl-1H-indazole]		increased the yield of the p44a splice form	higher than that in the compound 1 treatment
102	32.9	96.5	CCN1/C(=C/C(C)=O)Sc2ccc3occc3c21 [compound 3, 1-(1-ethylfuro[3,2-e][1,3]benzothiazol-2-ylidene)propan-2-one]		increased the yield of the p44a splice form	higher than that in the compound 1 treatment; also recorded: higher than that in the compound 2 treatment
